Data from patent publication US20190100534A1, “Cephem Compounds with Latent Reactive Groups” (Gladius Pharmaceuticals, Inc., priority 2017, published 2019).

Key:
KP(ATCC TEM-10/TEM-12) = format: cell-based, Klebsiella pneumoniae; settings: CAMH broth, 20 μM Apo-Transferrin, 37° C., 18 hours
Method: (§1) Sterile technique was used throughout these experiments. Suspensions of organisms were removed from storage (−80° C.) and partially thawed. Partially thawed organisms (1 μL) were inoculated into 3 mL sterile LB Broth in a sterile culture tube and capped, then cultured at 37° C. with shaking for 4-5 hours until the optical density at 600 nm (OD600) was greater than 0.1 on a single beam spectrophotometer.
(§2) The concentration of organisms was adjusted to 0.08-0.1 OD600 (0.5 McFarland units) by dilution with sterile cation-adjusted Meuller-Hinton (CAMH) broth. The suspensions were used within 30 minutes of preparation.
(§3) A stock solution was made of each test compound by measuring 6.4 mg of the compound on an analytical balance and dissolving it in DMSO (1 mL) to get a transparent solution. The solutions were stored at −20° C. and thawed prior to use.
(§4) Sterile CAMH broth (200 μL) containing 20 μM Apo-Transferrin was pipetted into the first row of 8 columns of a sterile, round-bottomed, transparent, 96-well microplate using an 8-channel pipette equipped with sterile tips. One hundred μL was pipetted into the wells of the remaining 11 rows.
(§5) With an 8-channel pipette equipped with sterile tips, 100 μL of the first row solution was transferred to the second row and mixed. The process was repeated for the second to third rows and continued through row 11. One hundred μL from row 11 was removed and discarded so that all 12 rows contained 100 μL. Row 12 contained no compound and rows 1-11 contained 64, 32, 16, 8, 4, 2, 1, 0.5, 0.25, 0.125, […] of a given compound.
(§6) Inoculant suspensions (0.5 μL) were added to the 12 wells of each column. The plates were then covered and incubated at 37° C. overnight for 18 hours.
(§7) For each organism the MIC was determined by identifying the transparent well with the lowest test compound concentration.

PM (RR -1) = assay: MIC determination; format: cell-based, Proteus mirabilis; settings: CAMH broth, 20 μM Apo-Transferrin, 37° C., 18 hours
Method: as §1, §2, §3, §4, §5, §6, §7

ENA (URMC-2) = assay: MIC determination; format: cell-based, Enterobacter aerogenes; settings: Klebsiella aerogenes, CAMH broth, 20 μM Apo-Transferrin, 37° C., 18 hours, read-out: Minimum Inhibitory Concentrations, ENA (URMC-2)
Method: as §1, §2, §3, §4, §5, §6, §7

ENA (URMC-1) = assay: MIC determination; format: cell-based, Enterobacter aerogenes; settings: Klebsiella aerogenes, CAMH broth, 20 μM Apo-Transferrin, 37° C., 18 hours, read-out: Minimum Inhibitory Concentrations, ENA (URMC-1)
Method: as §1, §2, §3, §4, §5, §6, §7

EC(KB1 CTX-M-14) = assay: MIC determination; format: cell-based, Escherichia coli; settings: Escherichia coli, 18 h, read-out: Minimum Inhibitory Concentrations, EC(KB1 CTX-M-14)
In short: (§8)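 Broth microdilution in cation-adjusted Mueller-Hinton broth with 20 μM apo-transferrin, two-fold compound series from 64 μg/mL, inoculum adjusted to 0.5 McFarland from 4-5 h LB cultures. Plates incubated 18 h at 37 °C. MIC taken as lowest concentration leaving a clear well.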

[1] = tested on: ENC (Enterobacter cloacae); assay: MIC determination; format: cell-based; settings: CAMH broth, 20 μM Apo-Transferrin, 37° C., 18 hours
In short: as §8

KP (URMC-2) = assay: MIC determination; format: cell-based, Klebsiella pneumoniae; settings: CAMH broth, 20 μM Apo-Transferrin, 37° C., 18 hours
Method: as §1, §2, §3, §4, §5, §6, §7

KP (RR -1) = assay: MIC determination; format: cell-based, Klebsiella pneumoniae; settings: CAMH broth, 20 μM Apo-Transferrin, 37° C., 18 hours
Method: as §1, §2, §3, §4, §5, §6, §7

KP(ATCC SHV-18) = assay: MIC determination; format: cell-based, Klebsiella pneumoniae; settings: CAMH broth, 20 μM Apo-Transferrin, 37° C., 18 hours
Method: as §1, §2, §3, §4, §5, §6, §7

KP (GJ 5659 TEM-26) = assay: MIC determination; format: cell-based, Klebsiella pneumoniae; settings: CAMH broth, 20 μM Apo-Transferrin, 37° C., 18 hours
Method: as §1, §2, §3, §4, §5, §6, §7

KP(JMI KPC-2) = assay: MIC determination; format: cell-based, Klebsiella pneumoniae; settings: CAMH broth, 20 μM Apo-Transferrin, 37° C., 18 hours
Method: as §1, §2, §3, §4, §5, §6, §7

KP (URMC-1) = assay: MIC determination; format: cell-based, Klebsiella pneumoniae; settings: CAMH broth, 20 μM Apo-Transferrin, 37° C., 18 hours
Method: as §1, §2, §3, §4, §5, §6, §7

KP (ATCC KPC-3) = assay: MIC determination; format: cell-based, Klebsiella pneumoniae; settings: CAMH broth, 20 μM Apo-Transferrin, 37° C., 18 hours
Method: as §1, §2, §3, §4, §5, §6, §7

KP (URMC-3) = assay: MIC determination; format: cell-based, Klebsiella pneumoniae; settings: CAMH broth, 20 μM Apo-Transferrin, 37° C., 18 hours
Method: as §1, §2, §3, §4, §5, §6, §7

KP(GJ 5934 TEM-26) = assay: MIC determination; format: cell-based, Klebsiella pneumoniae; settings: CAMH broth, 20 μM Apo-Transferrin, 37° C., 18 hours
Method: as §1, §2, §3, §4, §5, §6, §7

various enteric bacteria = assay: MIC determination, summary in text; format: cell-based; settings: review of Tables 3-1 to 3-6
Method: as §1, §2, §3, §4
To each well of the first row was pipetted 2.0 μL of the 6.4 mg/mL stock test compound stock solution to give 1:100 dilutions and a final concentration of 64 μg/mL and mixed.
as §5, §6, §7

EC(KB2 CTX-M-14) = assay: MIC determination; format: cell-based, Escherichia coli; settings: Escherichia coli, 18 h, read-out: Minimum Inhibitory Concentrations, EC(KB2 CTX-M-14)
In short: as §8

[2] = tested on: various Pseudomonas strains; assay: MIC determination, summary in text; format: cell-based, Pseudomonas aeruginosa; settings: review of Tables 1-1 and 1-2
Method: as §1, §2, §3, §4, §5, §6, §7

Row | SMILES | Minimum Inhibitory Concentrations, KP(ATCC TEM-10/TEM-12) (KP(ATCC TEM-10/TEM-12)) | Mimimum Inhibitory Concentrations, PM (RR -1) (PM (RR -1)) | MIC (ENA (URMC-2)) | MIC (ENA (URMC-1)) | MIC (EC(KB1 CTX-M-14)) | Mimimum Inhibitory Concentrations, ENC [1] | Minimum Inhibitory Concentrations, KP (URMC-2) (KP (URMC-2)) | Mimimum Inhibitory Concentrations, KP (RR -1) (KP (RR -1)) | Minimum Inhibitory Concentrations, KP(ATCC SHV-18) (KP(ATCC SHV-18)) | Minimum Inhibitory Concentrations, KP (GJ 5659 TEM-26) (KP (GJ 5659 TEM-26)) | Minimum Inhibitory Concentrations, KP(JMI KPC-2) (KP(JMI KPC-2)) | Minimum Inhibitory Concentrations, KP (URMC-1) (KP (URMC-1)) | Minimum Inhibitory Concentrations, KP (ATCC KPC-3) (KP (ATCC KPC-3)) | Minimum Inhibitory Concentrations, KP (URMC-3) (KP (URMC-3)) | Minimum Inhibitory Concentrations, KP(GJ 5934 TEM-26) (KP(GJ 5934 TEM-26)) | MICs for various enteric bacteria, in words (various enteric bacteria) | MIC (EC(KB2 CTX-M-14)) | MICs for various Pseudomonas strains, in words [2]
1 | CC(C)(O/N=C(\C(=O)N[C@@H]1C(=O)N2C(C(=O)O)=C(C=Cc3ccc(C[N+]4(C)CCc5ccc(O)c(O)c5C4)cc3)CS[C@H]12)c1csc(N)n1)C(=O)O (mixture of isomers) [Compound 442, 2-(4-((E/Z)-2-((6R,7R)-7-((Z)-2-(2-aminothiazol-4-yl)-2-(((2-carboxypropan-2-yl)oxy)imino)acetamido)-2-carboxy-8-oxo-5-thia-1-azabicyclo[4.2.0]oct-2-en-3 yl)vinyl)benzyl)-7,8-dihydroxy-2-methyl-1,2,3,4-tetrahydroisoquinolin-2-ium] | 4 microgram/mL | ≤0.06 microgram/mL | 1 µg/mL | 0.5 µg/mL | 1 µg/mL | 8 microgram/mL | 0.25 microgram/mL | 0.25 microgram/mL | 0.5 microgram/mL | 0.5 microgram/mL | 64 microgram/mL | 0.13 microgram/mL | >64 microgram/mL | ≤0.06 microgram/mL | 0.5 microgram/mL | – | – | –
2 | CC(C)(O/N=C(\C(=O)N[C@@H]1C(=O)N2C(C(=O)O)=C(C=Cc3ccc(C[N+]4(C)Cc5cc(O)c(O)c(Cl)c5C4)cc3)CS[C@H]12)c1csc(N)n1)C(=O)O (mixture of isomers) [Compound 432, 2-(4-((E/Z)-2-((6R,7R)-7-((Z)-2-(2-aminothiazol-4-yl)-2-(((2-carboxypropan-2-yl)oxy)imino)acetamido)-2-carboxy-8-oxo-5-thia-1-azabicyclo[4.2.0]oct-2-en-3-yl)vinyl)benzyl)-4-chloro-5,6-dihydroxy-2-methylisoindolin-2-ium] | 8 microgram/mL | ≤0.06 microgram/mL | 0.25 µg/mL | 1 µg/mL | – | – | ≤0.06 microgram/mL | 0.25 microgram/mL | – | 1 microgram/mL | 64 microgram/mL | 0.13 microgram/mL | >64 microgram/mL | ≤0.06 microgram/mL | 0.13 microgram/mL | low microgram/mL MICs | – | –
3 | CC(C)(O/N=C(\C(=O)N[C@@H]1C(=O)N2C(C(=O)O)=C(C=Cc3ccc(C[N+]4(C)CCc5c(Cl)c(O)c(O)c(Cl)c5C4)cc3)CS[C@H]12)c1csc(N)n1)C(=O)O (mixture of isomers) [Compound 429, 2-(4-((E/Z)-2-((6R,7R)-7-((Z)-2-(2-aminothiazol-4-yl)-2-(((2-carboxypropan-2-yl)oxy)imino)acetamido)-2-carboxy-8-oxo-5-thia-1-azabicyclo[4.2.0]oct-2-en-3-yl)vinyl)benzyl)-5,8 dichloro-6,7-dihydroxy-2-methyl-1,2,3,4-tetrahydroisoquinolin-2-ium] | 4 microgram/mL | ≤0.06 microgram/mL | 1 µg/mL | 2 µg/mL | – | – | ≤0.06 microgram/mL | 0.25 microgram/mL | – | 0.5 microgram/mL | 16 microgram/mL | ≤0.06 microgram/mL | >64 microgram/mL | ≤0.06 microgram/mL | 0.5 microgram/mL | – | 1 µg/mL | –
4 | CC(C)(O/N=C(\C(=O)N[C@@H]1C(=O)N2C(C(=O)O)=C(C=Cc3ccc(C[N+]4(C)Cc5c(Cl)c(O)c(O)c(Cl)c5C4)cc3)CS[C@H]12)c1csc(N)n1)C(=O)O (mixture of isomers) [Compound 431, 2-(4-((E/Z)-2-((6R,7R)-7-((Z)-2-(2-aminothiazol-4-yl)-2-(((2-carboxypropan-2-yl)oxy)imino)acetamido)-2-carboxy-8-oxo-5-thia-1-azabicyclo[4.2.0]oct-2-en-3-yl)vinyl)benzyl)-4,7-dichloro-5,6-dihydroxy-2-methylisoindolin-2-ium] | 16 microgram/mL | ≤0.06 microgram/mL | 0.5 µg/mL | 0.5 µg/mL | – | – | 0.13 microgram/mL | 0.13 microgram/mL | – | 0.5 microgram/mL | 8 microgram/mL | 0.25 microgram/mL | >64 microgram/mL | ≤0.06 microgram/mL | 0.5 microgram/mL | low microgram/mL MICs | – | low microgram/mL MICs
5 | C#CC[N+]1(Cc2ccc(C=CC3=C(C(=O)O)N4C(=O)[C@@H](NC(=O)/C(=N\OC(C)(C)C(=O)O)c5csc(N)n5)[C@H]4SC3)cc2)CCc2cc(O)c(O)cc2C1 (mixture of isomers) [Compound 446, 2-(4-((E/Z)-2-((6R,7R)-7-((Z)-2-(2-aminothiazol-4-yl)-2-(((2-carboxypropan-2-yl)oxy)imino)acetamido)-2-carboxy-8-oxo-5-thia-1-azabicyclo[4.2.0]oct-2-en-3-yl)vinyl)benzyl)-6,7-dihydroxy-2-(prop-2-yn-1-yl)-1,2,3,4-tetrahydroisoquinolin-2-ium] | 16 microgram/mL | – | – | – | 2 µg/mL | 4 microgram/mL | – | – | 1 microgram/mL | 2 microgram/mL | 32 microgram/mL | – | 64 microgram/mL | – | 0.5 microgram/mL | – | 8 µg/mL | –
